Source: article PMC10185560, “Turn air-captured CO2 with methanol into amino acid and pyruvate in an ATP/NAD(P)H-free chemoenzymatic system” (Nature Communications, 2023)

How the values were obtained:
L protein = biological target: T1, L protein (Escherichia coli, UniProt P0A9P0); experiment: NADH formation at […] nm; type: biochemical
T1 construct: gene lpdA
T1 sequence (P0A9P0 2-474): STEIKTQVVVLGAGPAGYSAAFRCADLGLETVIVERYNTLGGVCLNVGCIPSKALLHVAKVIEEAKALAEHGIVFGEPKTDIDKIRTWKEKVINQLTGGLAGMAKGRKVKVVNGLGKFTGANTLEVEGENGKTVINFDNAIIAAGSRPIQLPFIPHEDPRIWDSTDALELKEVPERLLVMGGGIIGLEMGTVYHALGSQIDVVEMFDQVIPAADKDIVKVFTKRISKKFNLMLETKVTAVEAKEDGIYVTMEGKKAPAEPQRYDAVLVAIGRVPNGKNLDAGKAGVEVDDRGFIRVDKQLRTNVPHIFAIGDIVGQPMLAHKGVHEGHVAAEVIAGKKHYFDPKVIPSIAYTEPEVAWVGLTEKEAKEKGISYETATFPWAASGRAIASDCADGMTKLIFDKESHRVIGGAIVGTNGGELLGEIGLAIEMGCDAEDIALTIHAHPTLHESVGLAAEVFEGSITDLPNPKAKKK

MsLSD = biological target: T2, MsLSD (Mycolicibacterium smegmatis, UniProt A0QY48); experiment: residual serine dehydratase activity; type: biochemical; details: 75% loss printed at 20 mM, reactive inactivator
T2 construct: gene MSMEG_3532; described as PLP-dependent
T2 sequence (A0QY48 1-316): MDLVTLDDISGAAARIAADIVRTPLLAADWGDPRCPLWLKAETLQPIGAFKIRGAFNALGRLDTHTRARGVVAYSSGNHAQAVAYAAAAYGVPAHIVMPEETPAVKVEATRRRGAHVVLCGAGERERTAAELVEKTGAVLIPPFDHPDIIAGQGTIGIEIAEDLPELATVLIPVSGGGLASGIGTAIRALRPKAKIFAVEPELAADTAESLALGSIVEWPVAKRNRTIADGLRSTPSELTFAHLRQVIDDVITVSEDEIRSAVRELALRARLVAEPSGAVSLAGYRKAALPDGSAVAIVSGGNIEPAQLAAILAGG

LpLSD = biological target: T3, LpLSD (Legionella pneumophila, UniProt Q5ZXE1); details: freshly made enzyme
T3 construct: gene sda-2
T3 sequence (Q5ZXE1 1-458): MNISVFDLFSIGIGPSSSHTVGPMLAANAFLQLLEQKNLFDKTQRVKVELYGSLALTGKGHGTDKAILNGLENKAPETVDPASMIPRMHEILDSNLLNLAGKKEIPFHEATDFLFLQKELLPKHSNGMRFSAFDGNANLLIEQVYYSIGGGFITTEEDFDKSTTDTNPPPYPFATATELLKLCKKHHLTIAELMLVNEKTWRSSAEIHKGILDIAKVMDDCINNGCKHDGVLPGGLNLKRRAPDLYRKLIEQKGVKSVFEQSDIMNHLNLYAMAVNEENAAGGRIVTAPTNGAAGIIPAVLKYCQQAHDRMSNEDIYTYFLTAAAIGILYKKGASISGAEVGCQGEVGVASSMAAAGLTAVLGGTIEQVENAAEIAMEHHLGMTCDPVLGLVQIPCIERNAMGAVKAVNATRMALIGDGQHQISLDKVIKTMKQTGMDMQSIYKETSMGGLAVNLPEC

NC(=O)c1ccc[n+]([C@@H]2O[C@H](COP(=O)(O)OP(=O)(O)OC[C@H]3O[C@@H](n4cnc5c(N)ncnc54)[C@H](O)[C@@H]3O)[C@@H](O)[C@H]2O)c1 [NAD^+]
NADH formation at 340 nm (L protein): Hred was then re-oxidized by L-protein in the presence of NAD^+

C=O [formaldehyde]
activity loss at 10 mM formaldehyde (MsLSD): ~ 50%

N[C@@H](CO)C(=O)O [serine]
pyruvate formation by HPLC (LpLSD): The fresh-made LpLSD enzyme showed similar activities
